Experimental data: patent US20120115151A1, “METHOD FOR TESTING A SUBJECT THOUGHT TO BE PREDISPOSED TO HAVING METASTATIC CANCER USING DELTA133P53BETA” (CENTRE NATIONAL DE LA RECHERCHE SCIENTIFIQUE (CNRS), priority 2009, published 2012)

Test system: hct116 cells transfected with GFP-tagged Δ133p53 isoforms
Assay: Matrigel Transwell invasion assay in the presence of the ROCK inhibitor
Format: cell-based
Conditions: Y27632 at 10 μM; cells expressing Δ133p53 isoforms invading through Matrigel
Description: Y27632 was purchased from calbiochem and was used at 10 μM in all experiments. The quantification of cell invasion was carried out in Transwell cell culture chambers containing fluorescence-blocking polycarbonate porous membrane inserts (Fluoroblock; #351152; BD Biosciences; pore size 8 μm). 100 μl of 2 mg/mL Matrigel with reduced growth factors (a commercially prepared reconstituted BM from Englebreth-Holm-Swarm tumours, #354230; BD Biosciences) were prepared in a Transwell. Cells were transfected and treated or not with Y27632 as monolayers before trypsinization and plating (10·10^4) in 2% FCS containing media on top of a thick layer (around 500 μm) of Matrigel contained within the upper chamber of a Transwell. Controls were left untreated. The upper and lower chambers were then filled with respectively 2% FCS containing media and media with 10% FCS, thus establishing a soluble gradient of chemo-attractant that permits cell invasion throughout the Matrigel. Cells were allowed to invade at 37° C., 5% CO2 through the gel before fixing for 15 min in 3.7% formaldehyde. Cells that had invaded through the Matrigel were detected on the lower side of the filter by GFP fluorescence and counted for cell number. All the surface of the filter is counted and each assay was performed twice in triplicate for each condition. […]

C[C@@H](N)[C@H]1CC[C@H](C(=O)Nc2ccncc2)CC1 [Y27632]
invasiveness of transfected cells: highly reduced
